Laboratory results taken from patent US11203601B2, “Tricyclic compounds as glycogen synthase kinase 3 (GSK3) inhibitors and uses thereof” (The Broad Institute, Inc., priority 2017, dated 2021).

Assays:
Experiment in all cases: Carna kinome panel
Assay type in all cases: biochemical
Conditions in all cases: read-out: % Inhibition at 10 μM of the test compound
[1] = target: TNK1 (Homo sapiens (Human), UniProt Q13470)
[2] = target: PKACγ (Homo sapiens (Human), UniProt P22612)
[3] = target: CaMK1δ (Homo sapiens (Human), UniProt Q8IU85)
[4] = target: ALK(G1202R) (Homo sapiens (Human), UniProt Q9UM73, G1202R)
[5] = target: TEC (Homo sapiens (Human), UniProt P42680)
[6] = target: PKCζ (Homo sapiens (Human), UniProt Q05513)
[7] = target: TYRO3 (Homo sapiens (Human), UniProt Q06418)
[8] = target: p38δ (Homo sapiens (Human), UniProt O15264)
[9] = target: KIT(D816E) (Homo sapiens (Human), UniProt P10721, D816E)
[10] = target: MAP2K3_Cascade (Homo sapiens (Human), UniProt P46734)
[11] = target: Haspin (Homo sapiens (Human), UniProt Q8TF76)
[12] = target: DLK_Cascade (Homo sapiens (Human), UniProt Q12852)
[13] = target: TSSK2 (Homo sapiens (Human), UniProt Q96PF2)
[14] = target: KIT(D816Y) (Homo sapiens (Human), UniProt P10721, D816Y)
[15] = target: AurA (Homo sapiens (Human), UniProt O14965)
[16] = target: MST3 (Homo sapiens (Human), UniProt Q9Y6E0)
[17] = target: MAP2K6_Cascade (Homo sapiens (Human), UniProt P52564)
[18] = target: EPHB4 (Homo sapiens (Human), UniProt P54760)
[19] = target: skMLCK (Homo sapiens (Human), UniProt Q9H1R3)
[20] = target: PKCα (Homo sapiens (Human), UniProt P17252)
[21] = target: EPHA4 (Homo sapiens (Human), UniProt P54764)
[22] = target: AurB (Homo sapiens (Human), UniProt Q96GD4)
[23] = target: MST2 (Homo sapiens (Human), UniProt Q13188)
[24] = target: RET(M918T) (Homo sapiens (Human), UniProt P07949, M918T)
[25] = target: MARK2 (Homo sapiens (Human), UniProt Q7KZI7)
[26] = target: PDHK2 (Homo sapiens (Human), UniProt Q15119)
[27] = target: SGK3 (Homo sapiens (Human), UniProt Q96BR1)
[28] = target: CK2α2/β (Homo sapiens (Human), UniProt P19784)
Experimental: Briefly, a selection of compounds was screened against a panel of kinases at a single concentration of 10 μM. […] This was completed using one of two assays, depending on the kinase being examined: 1) IMAP Assay. A solution of 4× inhibitor, 4× substrate/ATP/metal solution and 2× kinase solution was prepared with assay buffer (20 mM HEPES, 0.01% Tween-20, 2 mM DTT, pH 7.4) and mixed, then incubated in 384-well black plates for 1 hour at room temperature. The IMAP binding reagent (IMAP Screening Express kit; Molecular Devices) was added to each well and incubated for 30 minutes. […] 2) Off-Chip Mobility Shift Assay (MSA). A solution of 4× inhibitor, 4× substrate/ATP/metal solution and 2× kinase solution was prepared with assay buffer (20 mM HEPES, 0.01% Triton X-100, 2 mM DTT, pH 7.5) and mixed, then incubated in 384-well plates for 1 or 5 hours depending on the kinase, at room temperature. Termination buffer (QuickScout Screening assist MSA; Carna Biosciences) was added to each well. The entire reaction mixture was then applied to a LabChip3000 system (Caliper Life Science), and the product and substrate peptide peaks were separated and quantified. […] The entire reaction mixture was then applied to a LabChip3000 system (Caliper Life Science), and the product and substrate peptide peaks were separated and quantified.

[29] = target: HGK (Homo sapiens (Human), UniProt O95819)
[30] = target: EPHB3 (Homo sapiens (Human), UniProt P54753)
[31] = target: PDGFRβ (Homo sapiens (Human), UniProt P09619)
[32] = target: MRCKβ (Homo sapiens (Human), UniProt Q9Y5S2)
[33] = target: INSR (Homo sapiens (Human), UniProt P06213)
[34] = target: LYNa (Homo sapiens (Human), UniProt P07948)
[35] = target: FLT3 (Homo sapiens (Human), UniProt P36888)
[36] = target: MSK2 (Homo sapiens (Human), UniProt O75676)
[37] = target: KIT(V654A) (Homo sapiens (Human), UniProt P10721, V654A)
[38] = target: MET (Homo sapiens (Human), UniProt P08581)
[39] = target: MOS_Cascade (Homo sapiens (Human), UniProt P00540)
[40] = target: EGFR(L858R) (Homo sapiens (Human), UniProt P00533, L858R)

Sequence of MOS_Cascade (P00540 whole entry): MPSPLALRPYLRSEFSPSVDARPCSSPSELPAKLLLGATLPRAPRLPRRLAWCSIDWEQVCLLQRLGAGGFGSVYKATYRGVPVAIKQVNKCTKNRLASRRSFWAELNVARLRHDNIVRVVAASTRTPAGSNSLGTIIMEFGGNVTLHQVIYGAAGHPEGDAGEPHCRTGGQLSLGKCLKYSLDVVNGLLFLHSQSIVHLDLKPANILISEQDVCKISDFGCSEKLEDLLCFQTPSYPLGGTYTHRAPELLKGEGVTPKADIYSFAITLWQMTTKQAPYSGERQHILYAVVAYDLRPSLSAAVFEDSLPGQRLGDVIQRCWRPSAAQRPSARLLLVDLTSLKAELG
Sequence of FLT3 (P36888 27-993): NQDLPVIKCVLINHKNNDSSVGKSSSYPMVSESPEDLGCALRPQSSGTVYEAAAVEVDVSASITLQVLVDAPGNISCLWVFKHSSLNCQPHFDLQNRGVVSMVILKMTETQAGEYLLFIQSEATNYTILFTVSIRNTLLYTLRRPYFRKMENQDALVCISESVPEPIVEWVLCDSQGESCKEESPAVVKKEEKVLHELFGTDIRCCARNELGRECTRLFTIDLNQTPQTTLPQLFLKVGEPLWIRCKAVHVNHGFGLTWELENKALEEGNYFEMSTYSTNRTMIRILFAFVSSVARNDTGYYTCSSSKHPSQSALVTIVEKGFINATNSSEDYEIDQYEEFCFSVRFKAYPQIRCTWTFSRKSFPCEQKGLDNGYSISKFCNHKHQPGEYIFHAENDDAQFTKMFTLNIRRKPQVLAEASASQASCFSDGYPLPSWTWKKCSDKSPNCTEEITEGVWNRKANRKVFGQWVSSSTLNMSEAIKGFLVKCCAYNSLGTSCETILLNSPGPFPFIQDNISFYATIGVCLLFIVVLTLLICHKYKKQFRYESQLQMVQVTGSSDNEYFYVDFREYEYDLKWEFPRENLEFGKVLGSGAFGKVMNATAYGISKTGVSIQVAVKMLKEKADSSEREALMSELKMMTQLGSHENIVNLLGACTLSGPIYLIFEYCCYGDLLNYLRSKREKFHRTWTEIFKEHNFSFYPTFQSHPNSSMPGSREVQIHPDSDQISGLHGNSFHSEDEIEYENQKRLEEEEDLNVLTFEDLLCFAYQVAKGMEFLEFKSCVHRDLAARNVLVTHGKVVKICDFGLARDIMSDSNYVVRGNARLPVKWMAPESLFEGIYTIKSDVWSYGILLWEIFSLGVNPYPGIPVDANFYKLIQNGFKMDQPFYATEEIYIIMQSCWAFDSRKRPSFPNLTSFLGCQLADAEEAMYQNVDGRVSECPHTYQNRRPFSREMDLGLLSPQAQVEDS
Sequence of TSSK2 (Q96PF2 whole entry): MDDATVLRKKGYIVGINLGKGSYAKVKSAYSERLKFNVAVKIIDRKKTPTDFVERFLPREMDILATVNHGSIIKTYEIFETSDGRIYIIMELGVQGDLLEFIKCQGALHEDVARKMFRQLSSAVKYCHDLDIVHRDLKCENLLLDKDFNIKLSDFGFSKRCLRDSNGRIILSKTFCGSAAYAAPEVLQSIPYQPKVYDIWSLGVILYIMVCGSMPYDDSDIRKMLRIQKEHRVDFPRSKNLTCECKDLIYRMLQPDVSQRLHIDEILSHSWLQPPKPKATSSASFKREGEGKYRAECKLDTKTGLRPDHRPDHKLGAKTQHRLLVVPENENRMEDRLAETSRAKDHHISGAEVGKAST
Sequence of INSR (P06213 28-1382): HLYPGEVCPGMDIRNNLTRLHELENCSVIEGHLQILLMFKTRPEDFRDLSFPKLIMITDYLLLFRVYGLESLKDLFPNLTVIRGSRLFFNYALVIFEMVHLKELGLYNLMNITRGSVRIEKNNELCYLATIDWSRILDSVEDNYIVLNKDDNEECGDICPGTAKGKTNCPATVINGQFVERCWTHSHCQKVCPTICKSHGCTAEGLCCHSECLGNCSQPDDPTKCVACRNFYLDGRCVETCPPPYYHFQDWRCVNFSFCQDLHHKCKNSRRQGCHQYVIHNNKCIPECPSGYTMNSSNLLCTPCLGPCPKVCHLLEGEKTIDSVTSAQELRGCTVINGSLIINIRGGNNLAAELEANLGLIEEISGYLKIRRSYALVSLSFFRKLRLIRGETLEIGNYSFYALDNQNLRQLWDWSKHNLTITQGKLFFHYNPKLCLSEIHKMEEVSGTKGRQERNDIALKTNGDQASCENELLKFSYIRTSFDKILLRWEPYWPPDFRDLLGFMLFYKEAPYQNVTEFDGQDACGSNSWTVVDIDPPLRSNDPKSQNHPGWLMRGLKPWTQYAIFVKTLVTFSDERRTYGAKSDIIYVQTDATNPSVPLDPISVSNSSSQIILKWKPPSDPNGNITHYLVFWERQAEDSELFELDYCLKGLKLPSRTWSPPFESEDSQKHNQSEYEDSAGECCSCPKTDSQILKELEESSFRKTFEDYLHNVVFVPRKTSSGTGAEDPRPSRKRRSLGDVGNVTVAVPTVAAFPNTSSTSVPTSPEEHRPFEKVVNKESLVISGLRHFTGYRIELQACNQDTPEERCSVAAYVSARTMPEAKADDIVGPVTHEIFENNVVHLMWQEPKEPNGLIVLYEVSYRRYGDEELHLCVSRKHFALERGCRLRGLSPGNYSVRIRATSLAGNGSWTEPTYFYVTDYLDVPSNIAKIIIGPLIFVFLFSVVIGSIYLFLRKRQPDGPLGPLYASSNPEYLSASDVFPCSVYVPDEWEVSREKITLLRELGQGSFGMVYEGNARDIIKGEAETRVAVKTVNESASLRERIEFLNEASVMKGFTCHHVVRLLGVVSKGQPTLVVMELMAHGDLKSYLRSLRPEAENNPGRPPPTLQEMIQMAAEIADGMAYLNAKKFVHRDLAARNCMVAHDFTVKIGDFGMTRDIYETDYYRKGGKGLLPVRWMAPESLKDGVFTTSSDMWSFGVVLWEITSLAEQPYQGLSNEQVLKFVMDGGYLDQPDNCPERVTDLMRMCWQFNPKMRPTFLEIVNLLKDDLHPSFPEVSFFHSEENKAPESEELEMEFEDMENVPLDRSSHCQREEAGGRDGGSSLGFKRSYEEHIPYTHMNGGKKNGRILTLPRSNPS
Sequence of EPHB4 (P54760 16-987): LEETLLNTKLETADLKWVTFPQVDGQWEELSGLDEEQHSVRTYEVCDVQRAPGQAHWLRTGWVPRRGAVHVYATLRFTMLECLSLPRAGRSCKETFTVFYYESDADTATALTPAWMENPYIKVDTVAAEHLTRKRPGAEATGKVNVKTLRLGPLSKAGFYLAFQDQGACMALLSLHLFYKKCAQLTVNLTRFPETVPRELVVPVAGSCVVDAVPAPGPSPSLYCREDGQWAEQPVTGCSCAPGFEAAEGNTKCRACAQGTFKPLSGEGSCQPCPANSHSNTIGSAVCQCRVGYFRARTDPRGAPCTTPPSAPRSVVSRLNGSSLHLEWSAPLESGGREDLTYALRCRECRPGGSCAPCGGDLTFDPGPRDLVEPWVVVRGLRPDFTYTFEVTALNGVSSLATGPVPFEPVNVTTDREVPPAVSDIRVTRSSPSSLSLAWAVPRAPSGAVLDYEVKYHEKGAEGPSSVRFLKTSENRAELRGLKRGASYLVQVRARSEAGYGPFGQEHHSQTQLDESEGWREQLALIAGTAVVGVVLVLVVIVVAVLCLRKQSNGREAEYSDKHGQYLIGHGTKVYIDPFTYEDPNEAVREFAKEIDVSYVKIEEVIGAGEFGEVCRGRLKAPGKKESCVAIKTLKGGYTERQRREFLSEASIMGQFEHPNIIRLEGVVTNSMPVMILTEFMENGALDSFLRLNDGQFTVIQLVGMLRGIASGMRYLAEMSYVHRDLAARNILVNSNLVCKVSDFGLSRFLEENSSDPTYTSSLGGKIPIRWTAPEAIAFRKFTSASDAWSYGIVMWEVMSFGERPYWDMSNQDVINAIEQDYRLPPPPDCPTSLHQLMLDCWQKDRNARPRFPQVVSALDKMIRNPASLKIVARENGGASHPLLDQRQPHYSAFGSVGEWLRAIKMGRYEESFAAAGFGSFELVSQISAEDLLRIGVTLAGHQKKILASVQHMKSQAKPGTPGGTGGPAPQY
Sequence of KIT(D816Y) (P10721 26-976 D816Y): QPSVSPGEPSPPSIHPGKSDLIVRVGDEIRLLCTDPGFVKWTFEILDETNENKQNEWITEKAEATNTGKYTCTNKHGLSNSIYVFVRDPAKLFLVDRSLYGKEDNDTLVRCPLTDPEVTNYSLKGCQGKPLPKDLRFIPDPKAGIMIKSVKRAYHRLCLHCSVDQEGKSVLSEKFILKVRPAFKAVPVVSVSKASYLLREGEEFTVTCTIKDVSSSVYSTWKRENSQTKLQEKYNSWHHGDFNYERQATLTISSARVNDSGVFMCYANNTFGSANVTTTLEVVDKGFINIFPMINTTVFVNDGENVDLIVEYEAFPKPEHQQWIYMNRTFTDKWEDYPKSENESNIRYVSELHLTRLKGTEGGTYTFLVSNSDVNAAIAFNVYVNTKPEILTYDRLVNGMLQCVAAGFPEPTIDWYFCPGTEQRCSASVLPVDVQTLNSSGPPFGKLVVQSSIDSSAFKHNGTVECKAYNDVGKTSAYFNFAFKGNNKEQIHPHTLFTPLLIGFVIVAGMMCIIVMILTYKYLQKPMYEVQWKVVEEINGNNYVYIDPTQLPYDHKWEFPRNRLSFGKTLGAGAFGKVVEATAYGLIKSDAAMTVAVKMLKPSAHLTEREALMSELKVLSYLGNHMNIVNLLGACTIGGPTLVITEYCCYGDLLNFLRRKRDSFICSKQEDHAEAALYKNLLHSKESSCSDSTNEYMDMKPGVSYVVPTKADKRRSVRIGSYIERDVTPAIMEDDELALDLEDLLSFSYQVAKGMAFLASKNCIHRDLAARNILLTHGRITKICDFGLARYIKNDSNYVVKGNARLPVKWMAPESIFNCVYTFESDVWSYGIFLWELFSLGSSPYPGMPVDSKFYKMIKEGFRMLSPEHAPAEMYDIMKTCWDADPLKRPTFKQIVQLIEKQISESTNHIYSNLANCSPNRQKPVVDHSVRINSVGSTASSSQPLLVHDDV
Sequence of KIT(D816E) (P10721 26-976 D816E): as the sequence (P10721 26-976 D816Y) above, with Y791E counted along it
Sequence of KIT(V654A) (P10721 26-976 V654A): as the sequence (P10721 26-976 D816Y) above, with V629A, Y791D counted along it

SMILES: CCC1(c2ccccc2)C2=C(CC(C)(C)CC2=O)Nc2ncsc21 (stereo not shown) [Compound 1, 9-Ethyl-6,6-dimethyl-9-phenyl-5,6,7,9-tetrahydrothiazolo[4,5-b]quinolin-8(4H)-one]
- inhibition at 10 µM [1]: 11.7%
- inhibition at 10 µM [2]: -5.6%
- inhibition at 10 µM [3]: 1.3%
- inhibition at 10 µM [4]: -5%
- inhibition at 10 µM [5]: -9.1%
- inhibition at 10 µM [6]: 0.5%
- inhibition at 10 µM [7]: 3.8%
- inhibition at 10 µM [8]: 18%
- inhibition at 10 µM [9]: -0.2%
- inhibition at 10 µM [10]: 2.9%
- inhibition at 10 µM [11]: 1.5%
- inhibition at 10 µM [12]: 2.5%
- inhibition at 10 µM [13]: 3.1%
- inhibition at 10 µM [14]: -4.7%
- inhibition at 10 µM [15]: 0.4%
- inhibition at 10 µM [16]: 1.4%
- inhibition at 10 µM [17]: 5.6%
- inhibition at 10 µM [18]: 5.3%
- inhibition at 10 µM [19]: 9.7%
- inhibition at 10 µM [20]: -11%
- inhibition at 10 µM [21]: 0%
- inhibition at 10 µM [22]: -0.4%
- inhibition at 10 µM [23]: 4.2%
- inhibition at 10 µM [24]: 0.6%
- inhibition at 10 µM [25]: 0.4%
- inhibition at 10 µM [26]: 0.1%
- inhibition at 10 µM [27]: -2.3%
- inhibition at 10 µM [28]: -11.4%
- inhibition at 10 µM [29]: 0.4%
- inhibition at 10 µM [30]: -4.8%
- inhibition at 10 µM [31]: 2.5%
- inhibition at 10 µM [32]: 2%
- inhibition at 10 µM [33]: 4.1%
- inhibition at 10 µM [34]: 6%
- inhibition at 10 µM [35]: 2.9%
- inhibition at 10 µM [36]: 0.7%
- inhibition at 10 µM [37]: -3.5%
- inhibition at 10 µM [38]: 8.9%
- inhibition at 10 µM [39]: 12.4%
- inhibition at 10 µM [40]: 22.2%
